Assay results from patent publication US8324258B2, “F1F0-ATPase inhibitors and related methods” (The Regents of the University of Michigan, priority 2007, dated 2012).

How the values were obtained:
F1F0-ATPase [1] = target: T1, F1F0-ATPase (Bos taurus, UniProt P13621); assay: Inhibition of ATP hydrolysis by the F1F0-ATPase; format: biochemical; conditions: IC40: concentration for 40% inhibition
Experimental: (§1) The compounds listed in Table 9 were tested for activity against F1F0-ATPase by measuring ATP synthesis and ATP hydrolysis. In addition, the compounds were assessed for cytotoxicity in Ramos cells Inhibition of ATP synthesis and hydrolysis by the F1F0-ATPase and cytotoxicity in Ramos cells was measured as described in K. M. Johnson et al. Chemistry & Biology 2005, 12, 485-496.

Ramos cells = assay: Cytotoxicity (cell death) in Ramos cells; format: cell-based; conditions: Ramos cells
Experimental: as §1

F1F0-ATPase [2] = target: T1, F1F0-ATPase; assay: Inhibition of ATP synthesis by the F1F0-ATPase; format: biochemical; conditions: IC40: concentration for 40% inhibition
Experimental: as §1

Row | Structure (SMILES) | ATP Hydrolysis (IC40 μM) (F1F0-ATPase [1]) | EC50 (Ramos cells) | ATP Synthesis (IC40 μM) (F1F0-ATPase [2])
1 | O=C(N=C(NCCc1c[nH]cn1)Nc1ccc(-c2ccccc2)cc1)c1ccc(F)cc1 [II-9, (Z/E)-N-((2-(1H-imidazol-4-yl)ethylamino)(biphenyl-4-ylamino)methylene)-4-fluorobenzamide] | >30 µM | > 30 µM | >20 µM
2 | Cc1ccccc1NC(=NC(=O)c1cccc(Cl)c1)NCCc1c[nH]cn1 [III-8, (Z/E)-N-((2-(1H-imidazol-4-yl)ethylamino)(o-toluidino)methylene)-3-chlorobenzamide] | >30 µM | > 30 µM | >10 µM
3 | O=C(N=C(NCCc1c[nH]cn1)Nc1ccc(-c2ccccc2)cc1)c1cccc(Cl)c1 [III-7, (Z/E)-N-((2-(1H-imidazol-4-yl)ethylamino)(biphenyl-4-ylamino)methylene)-3-chlorobenzamide] | >10 µM | < 10 µM | <10 µM
